In ChEMBL document CHEMBL4130375, “Design, synthesis and biological evaluation of 4-amidobenzimidazole acridine derivatives as dual PARP and Topo inhibitors for cancer therapy” (Eur J Med Chem, 2017):

System: MCF7
Assay: Induction of apoptosis in human MCF7 cells assessed as necrotic cells at 5 uM after 48 hrs by Annexin V-FITC/propidium iodide staining based flow cytometry (reference value: 0%)
Format: functional

Compound: Cc1cccc2c(Nc3cccc(-c4nc5c(C(N)=O)cccc5[nH]4)c3)c3ccccc3nc12
- Activity: 0.641%
